“Also recorded” adds a separate entry of the source.
What was measured:
[1] = tested on: NFkB p65; assay: TNF-a induced NFkB p65 phosphorylation in HKC cells (immunoblot); format: cell-based, human
Protocol: (§1) Human proximal TEC (HKC-8) (courtesy of Dr. L. Racusen of John Hopkins University, Baltimore, Md.) were maintained in Dulbecco's modified Eagle's medium (DMEM)/F12 supplemented with 5% fetal bovine serum (FBS). Cells were plated at approximately 70% confluence in the media containing 5% FBS for 24 h and then underwent serum starvation for another 24 h. Human recombinant HGF and human recombinant TNF-α (R&D systems, Minneapolis, Minn.) were added to the culture with fresh serum-free medium at a final concentration of 20 ng/ml and 2 ng/ml respectively, or otherwise as indicated. Cell viability was assessed by Trypan blue exclusion. At different time points, cells and conditioned media were harvested for further investigation.
After different treatments, HKC cells were washed with PBS and lysed with RIPA buffer supplemented with protease inhibitors [1% Nonidet P-40, 0.1% SDS, 100 ug/ml phenylmethysulfonyl fluoride (PMSF), 0.5% sodium deoxycholate, ImM sodium orthovanadate, 2 ug/ml aprotin, 2 ug/ml leupeptin, 5mM EDTA in PBS]. Protein concentration was determined by using a bicinchoninic acid protein assay kit (Sigma). All samples with equal amounts of total protein (50 ug/ml) were fractionated by 7.5˜15% SDS-polyacrylamide gels under reducing condition and analyzed by western immunoblot as described previously (30). The antibodies against p-GSK3b, p-NFkB p65, p-IkBa were purchased from Cell Signaling Technology (Beverly, Mass.) and those for GSK3b, hemagglutin were from Santa Cruz Biotechnology (Santa Cruz, Calif.).

[2] = tested on: MCP-1 and RANTES; assay: TNF-α induced chemokine (MCP-1, RANTES) expression in HKC cells; format: cell-based, human
Protocol: In certain embodiments, Enzyme-linked Immunosorbent assay (ELISA) is used to evaluate GSK3b proten level. For example, rat kidneys were homogenized in RIPA [1% Nonidet P-40, 0.1% SDS, 100ug/ml phenylmethysulfonyl fluoride (PMSF), 0.5% sodium deoxycholate, 1 mM sodium orthovanadate, 2 ug/ml aprotin, 2 ug/ml leupeptin, 5 mM EDTA in PBS] buffer. Chemokine levels in homogenates of equal amounts of total protein were measured using specific sandwich enzyme immunometric assay kits for rat. Chemokines in conditioned media from HKC were determined by specific sandwich ELISA kits for human (R&D Systems) according to the manufacturer's instructions. Results were normalized for protein amounts in kidney homogenates, or for cell number in cultures.
as §1

[3] = tested on: E-selectin; assay: TNF-α induced E-selectin expression in HUVEC; format: cell-based, human
[4] = tested on: NFkB p65; assay: ChIP of NFkB p65 at MCP-1 and RANTES promoters in HKC cells; format: cell-based, human
Excerpt: The in situ interaction between NFκB and its target genes in HKC cells was examined by ChIP assay (35) using a commercially available kit (Upstate Biotechnology, Charlottesville, Va.) according to manufacturer's instructions. Briefly, HKC cells were fixed and crosslinked with 4% formaldehyde. After collection of cell pellets and sonication, aliquots of the samples were set aside as input fraction and the rest subjected to immunoprecipitation using an anti-NFκB p65 antibody or preimmune IgG and Protein A agarose used to pull down the immune complexes. After elution, precipitated chromatin as well as the input fraction was heated at 65° C. to reverse crosslinks and the DNA extracted with Qiagen PCR purification kit (Qiagen, Valencia, Calif.). DNA sequences spanning the κB responsive elements in the promoter region were amplified by PCR using specific primers (MCP-1, forward 5′-[…]-3′ (SEQ ID NO: 1), reverse 5′-[…]-3′(SEQ ID NO: 2), Genbank accession number Y18933; RANTES, forward 5′-[…]-3′ (SEQ ID NO: 3), reverse 5′-[…]-3′ (SEQ ID NO: 4), Genbank accession number S64885) for a number of cycles in the exponential phase as estimated in pilot experiments. DNA samples extracted from input fractions were amplified in parallel for normalization. PCR products resolved in ˜1.5 to 2% agarose gels were photographed under ultraviolet light.

[5] = tested on: NFkB target genes; assay: Real time RT-PCR of NFkB target genes in TNF-a stimulated HKC cells; format: cell-based, human
Protocol: Total RNA was extracted from approximately 1×10^6 cultured HKC cells using TRIzol solution (Invitrogen, Carlsbad, Calif.) according to the instructions specified by the manufacturer. RNA was then diluted to 3μg/μl in RNase free distilled water. The first strand cDNA was prepared using 3 μg RNA, Superscript RT reverse transcriptase (Invitrogen) and oligo (dT) primer according to the manufacture's instruction. Quantitative real time PCR was carried out on a Stratagene Mx4000® multiplex quantitative PCR system (Stratagene, La Jolla, Calif.) using primers specific for human MCP-1, RANTES, IkBa, Bcl-2 and GAPDH. All reactions were performed in triplicate with Brilliant® SYBR® Green QPCR Master Mix (Stratagene). Fluorescence values of SYBR Green I dye, representing the amount of product amplified at that point in the reaction, were recorded in real time at both the annealing step and the extension step of each cycle. The Ct value, defined as the point at which the fluorescence signal was statistically significant above background, was calculated for each amplicon in each experimental sample using Stratagene Mx4000 software. This value was then used to determine the relative amount of amplification in each sample by interpolating from the standard curve. Transcript level of each specific gene was normalized to GAPDH amplification.

[6] = tested on: remnant kidney rats; assay: Rat remnant kidney model (5/6 nephrectomy); format: in vivo; conditions: for inflammation and injury in remnant kidneys: rats, treatment for 2 wk beginning 2 wk after nephrectomy
Excerpt: We examined the molecular mechanism of HGF's anti-inflammatory actions in a model of CKD. Beginning 2 wk after ⅚^th nephrectomy, rats received exogenous HGF, neutralization of endogenous HGF by daily injection of an anti-HGF antibody, or preimmune IgG for 2 wk. […] There were parallel alterations in endothelial activation and inflammation, marked by de novo E-selectin expression and leukocyte adhesion to renal vascular endothelium. […] Thus, the GSK3b inhibitor HGF has direct anti-inflammatory effects via suppression of NF-KB and endothelial inflammation.

Substance: HGF: Human recombinant HGF (R&D systems); induces inhibitory phosphorylation of GSK3b
- TNF-a induced p65 phosphorylation at other sites (S276, S536) ([1]; HKC cells): had minimal effect on S276
- HGF inhibition of TNF-a-induced phosphorylation of p65 at S468 ([1]; HKC cells expressing GSK3b S9A): strikingly abolished in cells expressing S9A; also recorded: obliterated in HKC cells expressing GSK3b S9A
- TNF-a induced p65 phosphorylation at S468 ([1]; HKC cells, TNF-a 2 ng/ml, VPA 1 mM, 10 uM for 60 minutes): markedly abolished TNF-a induced phosphorylation of S468 in a time dependent fashion; also recorded: suppresses NFkB phosphorylation specifically at S468
- HGF inhibition of chemokine (RANTES, MCP-1) expression ([2]; HKC cells expressing uninhibitable mutant S9A-GSK3b): abolished HGF inhibition of basal and TNF-α stimulated RANTES expression; also recorded: abolished HGF suppression of E-selectin; also recorded: abolishes HGF's inhibitory effect
- HGF inhibition of chemokine (RANTES, MCP-1) expression ([2]; HKC cells transfected with pcDNA3 or WT-GSK3b): did not alter the inhibitory action of HGF on RANTES; also recorded: HGF inhibition of chemokine expression was evident
- basal and TNF-α induced chemokine (RANTES, MCP-1) expression ([2]; HKC cells, lithium 20 mM, HGF 20 ng/ml, TNF-a 2 ng/ml): suppresses basal and TNF-α-induced expression of RANTES in a time and dose dependent fashion; also recorded: suppressed MCP-1 and RANTES in a time and dose dependent manner; also recorded: blocked this induction; also recorded: attenuates TNF-α elicited chemokine expression; also recorded: attenuates TNF-a (2 ng/ml) elicited chemokine expression
- HGF inhibition of TNF-a induced E-selectin expression ([3]; HUVEC expressing uninhibitable mutant S9A-GSK3b): abolished HGF suppression of E-selectin; also recorded: abolished the suppressive action of HGF; also recorded: abolishes HGF inhibition of endothelial E-selectin
- HGF inhibition of TNF-a induced E-selectin expression ([3]; HUVEC transfected with pcDNA3 or HA-WT-GSK3b): HGF inhibition of E-selectin expression was evident
- TNF-α induced E-selectin expression ([3]; HUVEC, lithium 20 mM, HGF 100 ng/ml, TNF-a 0.5 ng/ml): suppressed endothelial expression of E-selectin; also recorded: suppressed TNF-α-induced expression of E-selectin; also recorded: attenuates TNF-α elicited E-selectin expression; also recorded: attenuates TNF-a (0.5 ng/ml) elicited E-selectin expression
- TNF-a induced recruitment of NFkB p65 to MCP-1 and RANTES promoters [4]: substantially attenuated by concomitant HGF treatment; also recorded: markedly attenuated
- suppressive effect of HGF on TNF-a induced MCP-1 and RANTES mRNA expression ([5]; HKC cells expressing S9A): obliterated in cells expressing S9A; also recorded: obliterated in cells expressing the mutant uninhibitable GSK3b
- suppressive effect of HGF on TNF-a induced MCP-1 and RANTES mRNA expression ([5]; HKC cells transfected with EV or WT): present in cells transfected with EV or WT
- TNF-a induced mRNA expression of IkBa and Bcl-2 ([5]; HKC cells, 12 h): not remarkably affected
- TNF-a induced mRNA expression of MCP-1 and RANTES ([5]; HKC cells, 12 h): strikingly attenuated TNF-a induced mRNA expression of MCP-1 and RANTES; also recorded: selectively regulates TNF-a induced transcription of specific NFkB target genes
- sequestration of circulating macrophages in the remnant kidney ([6]; exogenous HGF): markedly diminished sequestration of circulating macrophages in the remnant kidney
- inflammation and injury in remnant kidneys [6]: ameliorated; also recorded: reduces inflammatory infiltration, tubular and glomerular injury
- inflammation and injury in remnant kidneys ([6]; listed as hepatocyte growth factor): profoundly ameliorating gross renal inflammation
- expression of metalloproteinase-9 (MMP-9) ([6]; remnant kidney rats): increasing expression of metalloproteinase-9 (MMP-9)
- expression of transforming growth factor-beta (TGF-β) ([6]; remnant kidney rats): did not reduce expression of transforming growth factor-beta (TGF-β)
- levels of PAI-1 and TIMP-1 ([6]; remnant kidney rats): decreasing levels of plasminogen activator inhibitor-1 (PAI-1) and tissue inhibitor of metalloproteinase-1 (TIMP-1)
- renal / tubular expression of proinflammatory molecules (MCP-1, RANTES, E-selectin) ([6]; remnant kidney rats): decreased staining to normal
- interstitial injury ([6]; remnant kidney rats with established renal injury): reduced interstitial injury
- decrease of interstitial macrophages ([6]; remnant kidney rats, continuous infusion for two weeks): more than 50%
- renal / tubular expression of proinflammatory molecules (MCP-1, RANTES, E-selectin) ([6]; remnant kidney rats, listed as hepatocyte growth factor): reduced renal expression of proinflammatory molecules such as RANTES, and E-selectin

From patent publication US8110365B2, “Compositions and methods for detecting and treating renal injury and inflammation” (Rhode Island Hospital, priority 2006, dated 2012)
